Measurements taken from patent publication US20260265259A1, “SUBSTITUTED 6-IMIDAZOPYRIDAZINE IL-17A MODULATORS AND USES THEREOF” (DICE ALPHA, INC., priority 2023, published 2026).
pIC50: −log10 of the molar value.

System: IL-17A/A
Assay: IL-17A/A HEK-Blue cell assay
Assay type: cell-based
Details: HEK-Blue, 20 h, IL-17A/A inhibition, HEK-Blue IL-17A reporter cell line, IL17A/A 5 ng/mL, SEAP read at A630, read-out: AA IC50
Experimental: The HEK-Blue IL-17A reporter cell line (Fisher #NC1408637) was used for cell-based IL-17A/A inhibition assays. Cells were grown and prepared for assays according to the manufacturer's instructions. This cell line consists of HEK 293 cells that were designed to expressed IL-17RA, IL-17RC, and the Act1 adapter molecule, the combination of which, when stimulated by IL-17A/A or IL17A/F activates a NFκB promoter and drives expression of the recombinant Secreted Alkaline Phosphatase (SEAP) gene. Media from the cells is then added to a development reagent (Quanti-Blue Substrate, Fisher #NC9711613), and read at A630.
Compounds were dispensed in DMSO to an empty clear 384-well tissue culture plate in a titration ranging from 10 μM to 27 pM, with DMSO added to every well to a final concentration of 0.1%. Cells were then added to the plate (45 μL/well at a concentration of 280,000 cells/mL). IL17A/A (Genscript #Z03228) or IL17A/F (R&D Systems) was added to the plate to a final concentration of 5 ng/mL and a final well volume of 50 μL. The cells, compound, and IL-17A/A or IL17A/F were then incubated for 20 hours before media was removed for SEAP analysis. The resulting inhibition curve was then analyzed using Dotmatics' integrated 4-parameter fit screening protocol to generate IC50 values.

Compound | pIC50
CCn1ncnc1C(=O)N[C@H](c1cn2nc(C[C@H]3C[C@@H](C(F)(F)F)CNC3=O)c(C3CCOCC3)cc2n1)C1CCC(F)(F)CC1 [Compound 89] | 6.00 to 7.00
CC(C)n1ncnc1C(=O)N[C@H](c1cn2nc(C[C@H]3C[C@@H](C(F)(F)F)CNC3=O)c(C3CCOCC3)cc2n1)C1CCC(F)(F)CC1 [Compound 90] | > 7.00
O=C(N[C@H](c1cn2nc(C[C@H]3C[C@@H](C(F)(F)F)CNC3=O)c(C3CCOCC3)cc2n1)C1CCC(F)(F)CC1)c1ccnn1C1CC1 [Compound 91] | > 7.00
O=C(N[C@H](c1cn2nc(C[C@H]3C[C@@H](C(F)(F)F)CNC3=O)c(C3CCOCC3)cc2n1)C1CCC(F)(F)CC1)c1ccnn1C1CC1(F)F (stereo partly drawn) [Compound 92] | 6.00 to 7.00
CCn1nccc1C(=O)N[C@H](c1cn2nc(C[C@H]3C[C@@H](C(F)(F)F)CNC3=O)c(C3COCCO3)cc2n1)C1CCC(F)(F)CC1 (stereo partly drawn) [Compound 94] | 6.00 to 7.00
CCn1nccc1C(=O)N[C@H](c1cn2nc(C[C@H]3C[C@@H](C(F)(F)F)CNC3=O)c(N3CC(O)C3)cc2n1)C1CCC(F)(F)CC1 [Compound 98] | 6.00 to 7.00
CCn1nccc1C(=O)N[C@H](c1cn2nc(C[C@H]3C[C@@H](C(F)(F)F)CNC3=O)c(N3CCN(CCOC)CC3)cc2n1)C1CCC(F)(F)CC1 [Compound 99, N—((S)-(4,4-difluorocyclohexyl)(7-(4-(2-methoxyethyl)piperazin-1-yl)-6-(((3R,5R)-2-oxo-5-(trifluoromethyl)piperidin-3-yl)methyl)imidazo[1,2-b]pyridazin-2-yl)methyl)-1-ethyl-1H-pyrazole-5-carboxamide] | > 7.00
CCn1nccc1C(=O)N[C@H](c1cn2nc(C[C@H]3C[C@@H](C)CNC3=O)c(C3CCOCC3)cc2n1)C1CCC(F)(F)CC1 [Compound 100, N—((1S)-(4,4-difluorocyclohexyl)(6-(((5R)-5-methyl-2-oxopiperidin-3-yl)methyl)-7-(tetrahydro-2H-pyran-4-yl)imidazo[1,2-b]pyridazin-2-yl)methyl)-1-ethyl-1H-pyrazole-5-carboxamide] | 6.00 to 7.00
CCn1nccc1C(=O)N[C@H](c1cn2nc(C[C@@H]3C[C@@H](C)CNC3=O)c(C3CCOCC3)cc2n1)C1CCC(F)(F)CC1 [Compound 101, N—((1S)-(4,4-difluorocyclohexyl)(6-(((5R)-5-methyl-2-oxopiperidin-3-yl)methyl)-7-(tetrahydro-2H-pyran-4-yl)imidazo[1,2-b]pyridazin-2-yl)methyl)-1-ethyl-1H-pyrazole-5-carboxamide] | > 7.00
CCn1nccc1C(=O)N[C@H](c1cn2nc(C[C@H]3C[C@H](C)CNC3=O)c(C3CCOCC3)cc2n1)C1CCC(F)(F)CC1 [Compound 102, N—((1S)-(4,4-difluorocyclohexyl)(6-(((5S)-5-methyl-2-oxopiperidin-3-yl)methyl)-7-(tetrahydro-2H-pyran-4-yl)imidazo[1,2-b]pyridazin-2-yl)methyl)-1-ethyl-1H-pyrazole-5-carboxamide] | 6.00 to 7.00

Same assay, conditions: IL-17A/A inhibition, HEK-Blue IL-17A reporter cell line, IL17A/A 5 ng/mL, 20 hours, SEAP read at A630; read-out: AA IC50

Compound | pIC50
CCn1nccc1C(=O)N[C@H](c1cn2nc(C[C@H]3C[C@@H](C(F)(F)F)CNC3=O)c(C3CCOC(C)(C)C3)cc2n1)C1CCC(F)(F)CC1 (stereo partly drawn) [Compound 88] | > 7.00
O=C(N[C@H](c1cn2nc(C[C@H]3C[C@@H](C(F)(F)F)CNC3=O)c(C3CCOCC3)cc2n1)C1CCC(F)(F)CC1)c1ccnn1C1CC1(F)F (stereo partly drawn) [Compound 93] | > 7.00
CCn1nccc1C(=O)N[C@H](c1cn2nc(C[C@H]3C[C@@H](C(F)(F)F)CNC3=O)c(C3COCCO3)cc2n1)C1CCC(F)(F)CC1 (stereo partly drawn) [Compound 95] | > 7.00
CCn1nccc1C(=O)N[C@H](c1cn2nc(C[C@@H]3C[C@@H](C(F)(F)F)CNC3=O)c(N3CCOCC3C)cc2n1)C1CCC(F)(F)CC1 (stereo partly drawn) [Compound 96] | < 6.00
CCn1nccc1C(=O)N[C@H](c1cn2nc(C[C@@H]3C[C@@H](C(F)(F)F)CNC3=O)c(N3CCOCC3C)cc2n1)C1CCC(F)(F)CC1 (stereo partly drawn) [Compound 97] | > 7.00
